Reference: ChEMBL document CHEMBL3244225, “Synthesis and biological activity of some vinyl-substituted 2-nitroimidazoles” (J Med Chem, 1977)
Converted amounts (≈) assume the structure as drawn. The source made the active and inactive calls. No cut-off for these calls is given here.

Assays:
[1] = test system: Mycobacterium tuberculosis; assay: Antimicrobial activity against Mycobacterium tuberculosis ATCC 9360 by tube dilution method; format: functional
Escherichia coli [2] = assay: Antimicrobial activity against Escherichia coli infected in mouse at 200 mg/kg, sc; format: functional, organism-based; set-up: dose 200 mg/kg
Klebsiella pneumoniae = assay: Antimicrobial activity against Klebsiella pneumoniae I.S.M. by tube dilution method; format: functional
Pseudomonas aeruginosa = assay: Antimicrobial activity against Pseudomonas aeruginosa ATCC 10145 by tube dilution method; format: functional
[3] = test system: Trichophyton mentagrophytes; assay: Antimicrobial activity against Trichophyton mentagrophytes SKF 17410 by tube dilution method; format: functional
Proteus vulgaris = assay: Antimicrobial activity against Proteus vulgaris X19 H ATCC 881 by tube dilution method; format: functional
Shigella sonnei = assay: Antimicrobial activity against Shigella sonnei ATCC 9290 by tube dilution method; format: functional
[4] = test system: Mycoplasmoides gallisepticum; assay: Antimicrobial activity against Mycoplasma gallisepticum H21 C.Z.B. by tube dilution method; format: functional
Trichomonas vaginalis [5] = assay: Ratio of metronidazole ED50 to compound ED50 for Trichomonas vaginalis infected in sc dosed mouse; format: functional
Trichomonas vaginalis [6] = assay: Trichomonastatic activity against Trichomonas vaginalis by tube dilution method; format: functional
Candida albicans = assay: Antimicrobial activity against Candida albicans SKF 2270 by tube dilution method; format: functional
[7] = Toxicity in po dosed mouse infected with Trichomonas vaginalis; format: organism-based; details: in vivo
Escherichia coli [8] = assay: Antimicrobial activity against Escherichia coli SKF 12140 by tube dilution method; format: functional
Staphylococcus aureus [9] = assay: Antimicrobial activity against Staphylococcus aureus Tour by tube dilution method; format: functional
Trichomonas vaginalis [10] = assay: Trichomonacidal activity against Trichomonas vaginalis by tube dilution method; format: functional
Salmonella typhimurium = assay: Antimicrobial activity against Salmonella typhimurium Kh by tube dilution method; format: functional, Salmonella enterica subsp. enterica serovar Typhimurium; details: Salmonella enterica
Clostridium perfringens = assay: Antimicrobial activity against Clostridium perfringens ISS 30543 by tube dilution method; format: functional
Streptococcus pneumoniae = assay: Antimicrobial activity against Diplococcus pneumoniae UC41 by tube dilution method; format: functional
Streptococcus pyogenes = assay: Antimicrobial activity against Streptococcus haemolyticus C 203 by tube dilution method; format: functional
[11] = Toxicity in po dosed mouse infected with Escherichia coli; format: organism-based; details: in vivo
[12] = Toxicity in sc dosed mouse infected with Escherichia coli; format: organism-based; details: in vivo
Escherichia coli [13] = assay: Antimicrobial activity against Escherichia coli infected in mouse at 250 mg/kg, sc; format: functional, organism-based; set-up: dose 250 mg/kg
Escherichia coli [14] = assay: Antimicrobial activity against Escherichia coli infected in mouse at 250 mg/kg, po; format: functional, organism-based; set-up: dose 250 mg/kg
Staphylococcus aureus [15] = assay: Antimicrobial activity against Staphylococcus aureus infected in mouse at 200 mg/kg, po; format: functional, organism-based; set-up: dose 200 mg/kg
Staphylococcus aureus [16] = assay: Antimicrobial activity against Staphylococcus aureus infected in mouse at 200 mg/kg, sc; format: functional, organism-based; set-up: dose 200 mg/kg
Escherichia coli [17] = assay: Antimicrobial activity against Escherichia coli infected in mouse at 300 mg/kg, po; format: functional, organism-based; set-up: dose 300 mg/kg

SMILES	MIC [1]	MIC (Klebsiella pneumoniae)	MIC (Pseudomonas aeruginosa)	MIC [3]	MIC (Proteus vulgaris)	MIC (Shigella sonnei)	MIC [4]	Ratio ED50 (Trichomonas vaginalis [5])	MIC (Trichomonas vaginalis [6])	MIC (Candida albicans)	LD50 [7]	MIC (Escherichia coli [8])	MIC (Staphylococcus aureus [9])	MIC (Trichomonas vaginalis [10])	MIC (Salmonella typhimurium)	MIC (Clostridium perfringens)	MIC (Streptococcus pneumoniae)	MIC (Streptococcus pyogenes)	LD50 [11]	LD50 [12]	further results
CC(=O)/C=C/c1cnc([N+](=O)[O-])n1C	20 µg/mL (≈ 102 µM)	100 µg/mL (≈ 512 µM)	> 100 µg/mL	100 µg/mL (≈ 512 µM)	100 µg/mL (≈ 512 µM)	50 µg/mL (≈ 256 µM)	50 µg/mL (≈ 256 µM)	1.1	10 µg/mL (≈ 51.2 µM)	> 100 µg/mL	800 mg/kg	20 µg/mL (≈ 102 µM)	50 µg/mL (≈ 256 µM)	50 µg/mL (≈ 256 µM)	50 µg/mL (≈ 256 µM)	5 µg/mL (≈ 25.6 µM)	100 µg/mL (≈ 512 µM)	100 µg/mL (≈ 512 µM)			Activity (Escherichia coli [2]): inactive
CC(/C=C/c1cnc([N+](=O)[O-])n1C)=[N+](\C)[O-]	> 100 µg/mL	100 µg/mL (≈ 446 µM)	> 100 µg/mL	> 100 µg/mL	100 µg/mL (≈ 446 µM)	100 µg/mL (≈ 446 µM)	50 µg/mL (≈ 223 µM)	2.6	50 µg/mL (≈ 223 µM)	> 100 µg/mL	700 mg/kg	50 µg/mL (≈ 223 µM)	50 µg/mL (≈ 223 µM)	100 µg/mL (≈ 446 µM)	100 µg/mL (≈ 446 µM)	10 µg/mL (≈ 44.6 µM)	50 µg/mL (≈ 223 µM)	100 µg/mL (≈ 446 µM)	700 mg/kg	700 mg/kg	Activity (Escherichia coli [13]): inactive; Activity (Escherichia coli [14]): inactive
Cn1c(/C=C/C=[N+](/C)[O-])cnc1[N+](=O)[O-]	100 µg/mL (≈ 476 µM)	20 µg/mL (≈ 95.2 µM)	> 100 µg/mL	> 100 µg/mL	> 100 µg/mL	20 µg/mL (≈ 95.2 µM)	10 µg/mL (≈ 47.6 µM)		> 100 µg/mL	> 100 µg/mL		50 µg/mL (≈ 238 µM)	10 µg/mL (≈ 47.6 µM)		20 µg/mL (≈ 95.2 µM)	5 µg/mL (≈ 23.8 µM)	100 µg/mL (≈ 476 µM)	20 µg/mL (≈ 95.2 µM)	700 mg/kg	700 mg/kg	Activity (Staphylococcus aureus [15]): Active; Activity (Staphylococcus aureus [16]): Active
Cn1c(/C=C/C=O)cnc1[N+](=O)[O-]	50 µg/mL (≈ 276 µM)	10 µg/mL (≈ 55.2 µM)	100 µg/mL (≈ 552 µM)	10 µg/mL (≈ 55.2 µM)	20 µg/mL (≈ 110 µM)	20 µg/mL (≈ 110 µM)	50 µg/mL (≈ 276 µM)		20 µg/mL (≈ 110 µM)	> 100 µg/mL		5 µg/mL (≈ 27.6 µM)	20 µg/mL (≈ 110 µM)	50 µg/mL (≈ 276 µM)	5 µg/mL (≈ 27.6 µM)	20 µg/mL (≈ 110 µM)	5 µg/mL (≈ 27.6 µM)	10 µg/mL (≈ 55.2 µM)			Activity (Escherichia coli [17]): inactive
